Results: patent publication US9150665B2, “Cellulose interpolymers and method of oxidation” (Eastman Chemical Company, priority 2003, dated 2015)
In brackets after ≈: the same amount, converted by molar mass.

Experiment: physchem
Conditions: for % Drug Solubilized: pH 3.9; for Sw/So: pH 4; for solubility: water
Procedure: The heterogeneous mixture was mixed well before carefully adjusting the pH with 0.1 N NaOH until the CA dissolved giving a clear solution. […] Four independent aqueous CA solutions were prepared by this process. […] The ethanol solution of each drug was then added slowly to the aqueous CA solutions previously prepared.
All of the samples were filtered thru 0.45 micron syringe filters before measurement. […] Solutions of each of the oxidized CA:drug mixtures were also prepared in 50/50 ethanol/Millipore water. […] All samples were immediately analyzed for the amount of drug in the solution using an UV-Vis Spectrophotometer.

Compound	Sw (amount of drug solubilized)	% Drug Solubilized	Sw/So	solubility
CC(C)(C#N)c1cc(Cn2cncn2)cc(C(C)(C)C#N)c1 [anastrozole]	1.2481 g/L/25 g of drug:CAOX	90%	1.9	650 µg/mL (≈ 2220 µM)
N#Cc1ccc(C(c2ccc(C#N)cc2)n2cncn2)cc1 [letrozole]	0.1461 g/L/25 g of drug:CAOX	7%	1.2	120 µg/mL (≈ 421 µM)
